This note sets out measurements from patent US11932633B2, “KRas G12C inhibitors” (Mirati Therapeutics, Inc., priority 2018, dated 2024).

The target of assay [1] is T1, KRas G12C (Homo sapiens, UniProt P01116, C118S/C51S/C80L/G12C).
T1 construct: GDP-loaded K-Ras (1-169) G12C, C51S, C80L, C118S
Description: KRas G12C Modification Assay (LCMS detection of covalent adduct). Particulars: 5 μM concentration for 3 hours. Type of assay: binding. The method, then:
This Example illustrates that exemplary compounds of the present invention covalently bind to KRas G12C using a LCMS assay to detect a covalent adduct of the exemplary compound and KRAS G12C.
The protein concentration of GDP-loaded K-Ras (1-169) G12C, C51S, C80L, C118S and GTP-loaded K-Ras (1-169) G12C, C51S, C80L, C118S, Q61H was adjusted to 2 μM in K-Ras Assay Buffer (25 mM HEPES, 150 mM NaCl, 5 mM MgCl2, and 10 mM Octyl β-glucopyranoside at pH 7.5). A 10 μL aliquot of each protein solution was transferred to a 384 well microtiter plate. Initial compound stocks were generated at fifty times their desired final assay concentration in DMSO.
Exemplary compounds of formula (I) were diluted 25-fold into K-Ras Assay Buffer to a final of two times their final concentration. A 10 μL aliquot of each diluted compound solution was added to each of the protein solutions in the microtiter plate to initiate reaction. Typical final compound concentrations were 3.0, 5.0 and 25.0 μM. At each time point, the reactions were quenched with 20 μL of a 25 mM acetic acid solution. Usual assay endpoints were 15, 180 and 1440 minutes. Once all reactions were quenched, the plates were heat sealed and the samples were injected into a LC/MS system for data acquisition.
Data collection took place on an Agilent 6520 Q-TOF Accurate Mass Spectrometer. Samples were injected in their liquid phase onto a C-3 reverse phase column to remove assay buffer and prepare the samples for mass spectrometer. The proteins were eluted from the column using an acetonitrile gradient and fed directly into the mass analyzer. Initial raw data analysis took place in Agilent MassHunter software immediately post data acquisition.
Raw data analysis of the intact protein was exclusively a deconvolution of the multiple charge states of each protein in solution using a maximum entropy deconvolution provided in Mass Hunter. To minimize complexity, only the data over limited mass ranges were considered for analysis, with a minimum of one Dalton mass step intervals. The heights of all masses identified during raw data analysis were exported to be further analyzed in Spotfire® data analysis software.
Final data analysis was a multistep process in the Spotfire® data analysis software package. Briefly, each protein mass was calculated as a percent of the total signal of that sample, that percentage was normalized to the percentage of signal of the protein in the absence of reactive compounds. Those normalized signals were reported as normalized percent of control (POC). […] Key: N.D. is not determined.

For assay [2], the target named is T2, KRas G12C (Homo sapiens, UniProt P01116, G12C).
T2 construct: NCI-11358 cells (ATCC CRL-5807) express KRas G12C; host or cells: NCI-H358
The assay is described as follows: Cellular inhibition of KRas G12C measured by Phospho-ERK in NCI-11358 cells. The class given is cell-based. To be noted: NCI-11358 cells (ATCC CRL-5807), 3 hours; read-out: Inhibition (IC50, pERK (Thr202/Tyr204) signal normalized with GAPDH). How it is done:
The cellular inhibition of KRAs G12C by exemplary compounds of the present invention was determined by measuring the amount of a downstream marker of KRas activity, phosphorylated ERK (“Phospho-ERK”).
NCI-11358 cells (ATCC CRL-5807) express KRas G12C and were grown in RPMI medium supplemented with 10% fetal bovine serum, penicillin/streptomycin and 10 mM HEPES. Cells were plated in poly-D-Lysine coated 96-well plates at a concentration of 50,000 cells/well and allowed to attach for 8-12 hours. Diluted compounds were then added at a final concentration of 0.5% DMSO. After 3 hours, the medium was removed, 150 μL of 4% formaldehyde was added and the plates were incubated for 20 minutes. The plates were washed with PBS, and permeabilized using 150 μL of ice cold 100% methanol for 10 minutes. Non-specific antibody binding to the plates was blocked using 100 μL Licor Blocking Buffer (Li-Cor Biotechnology, Lincoln NE) for 1 hour at room temperature. Positive control samples and samples lacking cells were parallel processed with test samples as standards.
The amount Phospho-ERK was determined using an antibody specific for the phosphorylated form of ERK and compared to the amount of GAPDH. Primary antibodies used for detection were added as follows: Phospho-ERK (Cell Signaling cs9101) diluted 1:500 and GAPDH (Millipore MAB374) diluted 1:5000 in Licor block+0.05% Tween 20. The plates were incubated for 2 hours at room temperature. The plates were washed with PBS+0.05% Tween 20.
Secondary antibodies used to visualize primary antibodies were added as follows: Anti-rabbit-680 diluted 1:1000 and Anti-mouse-800 diluted 1:1000 in Licor Block+0.05% Tween 20 and incubated for 1 hour at room temperature. The plates were washed with PBS+0.05% Tween 20. A 100 μL aliquot of PBS was added to each well and the plates were read on a LICOR AERIUS plate reader.
The pERK (Thr202/Tyr204) signal was normalized with the GAPDH signal and percent of DMSO control values were calculated. IC50 values were generated using a 4 parameter fit of the dose response curve. Key: “A”: ≤1 μM, “B”>1 μM and N.D.=not determined.

SMILES strings stand for the structures. Where only a bound is given, the exact number is not on record here.

Regarding `C=CC(=O)N1CC(CN2C(=O)COc3cc(-c4c(C)ccc5[nH]ncc45)c(Cl)cc32)C1` (single isomer, unassigned) [Example 10], in assay [1] (5 µM), the “POC (normalized percent of control, covalent modification of KRas G12C)” value was 53% of control. Further, in assay [2], the IC50 is above 1 µM.
The like results for `C=CC(=O)N1CC(CN2C(=O)COc3cc(-c4c(C)ccc5[nH]ncc45)c(Cl)cc32)C1` (single isomer, unassigned) [Example 11] were, in that order, 96% of control and above 1 µM.
Regarding `C=CC(=O)N1CC(CN2C(=O)[C@H](CCN(C)C)Oc3cc(-c4c(C)ccc5[nH]ncc45)c(Cl)cc32)C1` (single isomer, unassigned) [Example 35], in assay [1] (5 µM), the “POC (normalized percent of control, covalent modification of KRas G12C)” value is 86% of control. For the same compound, the IC50 in assay [2] is at most 1 µM.
For the compound `C=CC(=O)N1CC(CN2C(=O)[C@H](CCN(C)C)Oc3cc(-c4c(C)ccc5[nH]ncc45)c(Cl)cc32)C1` (single isomer, unassigned) [Example 36], the “POC (normalized percent of control, covalent modification of KRas G12C)” value in assay [1] (5 µM) is 27% of control. Also, the IC50 in assay [2] was above 1 µM.
On to `C=CC(=O)N1CC(CN2C(=O)COc3cc(-c4cc(O)cc5ccccc45)c(Cl)cc32)C1` [Example 1, 4-((1-acryloylazetidin-3-yl)methyl)-6-chloro-7-(3-hydroxynaphthalen-1-yl)-2H-benzo[b][1,4]oxazin-3(4H)-one], for which the “POC (normalized percent of control, covalent modification of KRas G12C)” value in assay [1] is given as 104% of control. The IC50 in assay [2] was at most 1 µM.
As for `C=CC(=O)N1CC(CN2C(=O)C(CC(C)C)Oc3cc(-c4cc(O)cc5ccccc45)c(Cl)cc32)C1` (stereo not shown) [Example 2, 4-((1-acryloylazetidin-3-yl)methyl)-6-chloro-7-(3-hydroxynaphthalen-1-yl)-2-isobutyl-2H-benzo[b][1,4]oxazin-3(4H)-one], the “POC (normalized percent of control, covalent modification of KRas G12C)” value in assay [1] was 94% of control. In assay [2], the IC50 was above 1 µM.
Regarding `C=CC(=O)N1CC(CN2C(=O)C(C3CCN(C)CC3)Oc3cc(-c4cc(O)cc5ccccc45)c(Cl)cc32)C1` (stereo not shown) [Example 3, 4-((1-acryloylazetidin-3-yl)methyl)-6-chloro-7-(3-hydroxynaphthalen-1-yl)-2-(1-methylpiperidin-4-yl)-2H-benzo[b][1,4]oxazin-3(4H)-one], the “POC (normalized percent of control, covalent modification of KRas G12C)” value in assay [1] is reported as 91% of control. The IC50 in assay [2] was at most 1 µM.
The like results for `C=CC(=O)N1CC(CN2C(=O)C(CN3CCCC3)Oc3cc(-c4cc(O)cc5ccccc45)c(Cl)cc32)C1` (stereo not shown) [Example 4, 4-((1-acryloylazetidin-3-yl)methyl)-6-chloro-7-(3-hydroxynaphthalen-1-yl)-2-(pyrrolidin-1-ylmethyl)-2H-benzo[b][1,4]oxazin-3(4H)-one] were, in that order, 104% of control and at most 1 µM.
Turning to `C=CC(=O)N1CC(CN2C(=O)C(CN3CCC(N(C)C)CC3)Oc3cc(-c4cc(O)cc5ccccc45)c(Cl)cc32)C1` (stereo not shown) [Example 5, 4-((1-acryloylazetidin-3-yl)methyl)-6-chloro-2-((4-(dimethylamino)piperidin-1-yl)methyl)-7-(3-hydroxynaphthalen-1-yl)-2H-benzo[b][1,4]oxazin-3(4H)-one], the “POC (normalized percent of control, covalent modification of KRas G12C)” value in assay [1] is 95% of control. Besides, the IC50 in assay [2] is at most 1 µM.
Consider `C=CC(=O)N1CC(CN2C(=O)COc3c2ccc(-c2cc(O)cc4ccccc24)c3F)C1` [Example 6, 4-((1-acryloylazetidin-3-yl)methyl)-8-fluoro-7-(3-hydroxynaphthalen-1-yl)-2H-benzo[b][1,4]oxazin-3(4H)-one], for which the “POC (normalized percent of control, covalent modification of KRas G12C)” value in assay [1] is reported as 86% of control. The IC50 in assay [2] is above 1 µM.
For `C=CC(=O)N1CC(CN2C(=O)COc3cc(-c4cc(O)ccc4OC(F)(F)F)c(Cl)cc32)C1` [Example 7, 4-((1-acryloylazetidin-3-yl)methyl)-6-chloro-7-(5-hydroxy-2-(trifluoromethoxy)phenyl)-2H-benzo[b][1,4]oxazin-3(4H)-one], in assay [1], the “POC (normalized percent of control, covalent modification of KRas G12C)” value is reported as 96% of control. The IC50 in assay [2] was above 1 µM.
